From patent publication US11633370B2, “Use of scavengers of reactive gamma-ketoaldehydes to extend cell lifespan and healthspan” (Vanderbilt University, priority 2016, dated 2023)

Columns and labels:
[1] = tested on: RB981 [F19F10.5(ok888) V]; assay: Longevity assay, ets-7 gene knock-out strain; format: in vivo, C. elegans; details: 500 μM SA; 0 μM SA 16 days; p>0.05
Excerpt: First, to validate the microarray results, the present inventors performed real-time RT-PCR on four genes, siah-1, sma-4, F13D12.6, and ets-7 (FIG. 6B). […] Messenger RNA levels for siah-1 and sma-4 were decreased by nearly 25%, as well as F13D12.6 and ets-7 were increased by nearly 25% by SA administration (p<0.05). Pathway Analysis using Gene Ontology (GO) with WEB-based Gene SeT Analysis Toolkit (WEBGESTALT <http://bioinfo.vanderbilt.edu/webgestalt/>) highlighted the metabolic process, lipid metabolic process, proteolysis pathways among many others as being altered favorably by the administration of SA (see Supplemental Data). From the array data confirmed by RT-PCR, the present inventors identified the ETS class transcription factor ETS-7 as a protein of interest. […] In order to test this, the present inventors carried out real-time RT-PCR quantification of ets-7 in non-functional SIR-2.1 mutant nematodes treated with increasing doses of SA (FIG. 6E). […]
Survival cultures were grown on 60-mm agar plates; after the late-stage L4/young adult molt, approximately 100 adults were transferred onto SA-OP50-seeded NGM plates. […] Worms were maintained at 20° C. and live worms were counted during transfer to freshly made SA-OP50-NGM agar plates every 2-3 days. Survival was scored as movement upon slight touch with the platinum wire. […]

VC199 SIR-2.1 mutants [2] = assay: Oxygen consumption rate of whole worms, VC199; format: in vivo, C. elegans; details: whole worms over several days; p>0.05
Excerpt: (§1) Mitochondria lie at the center of aging biology, playing crucial roles in energy production, carbon substrate metabolism, apoptosis regulation, and redox balance and signaling. Since sirtuins play a major role in regulating mitochondrial function, the present inventors next wanted to investigate whether SA was exerting any of its effects via protection of mitochondrial processes. To investigate SA's effects on mitochondrial respiration, the present inventors administered SA to WT N2 (FIG. 5A) and non-functional SIR-2.1 mutant worms (FIG. 5B) and measured oxygen consumption rate (OCR) in whole worms over several days. […] The present inventors also examined the effect of SA treatment on mitochondrial DNA (mtDNA) integrity.
Oxygen consumption rate for whole C. elegans was measured using a Seahorse Bioscience XF^e96 Analyzer. Worms were harvested from Day 0, 2, and 15 colonies maintained on FUDR containing SA-OP50-seeded NGM plates by washing in M9 medium, followed by floatation on an ice-cold 60% w/v sucrose gradient to segregate clean bacteria-free adult worms from bacterial debris. Worms were seeded at 1,000 worms/well in M9. After 20 min equilibration, a 2-min measurement was performed to obtain basal OCR for all experimental conditions and strains.

VC199 SIR-2.1 mutants [3] = assay: mtDNA copy number by qPCR, VC199; format: in vivo, C. elegans; details: with age or with SA treatment
Excerpt: as §1
Relative mitochondrial and nuclear copy number were measured by quantitative, real-time PCR [90]. Primers for NADH dehydrogenase unit 1 (nd1) and a 164 bp region of the cox-4 gene were used in determination of mtDNA copy number. The nd1 forward primer 5′-[…]-3′ and reverse primer 5′-[…]-3′. Cox-4 forward primer 5′-GCCGACTGGAAGAACTTGTC-3′ and reverse primer 5′-[…]-3′. […] Amplified products were detected with SYBR Green (iQ™ SYBR® Green Supermix, Bio-Rad) and fluorescent signal intensities were determined by CFX96 Touch™ Real-Time PCR Detection System (Bio-Rad) by software CFX Manager™ (version 3.1). […]

[4] = compared with pyridoxamine (PM); cited from earlier work

NCc1ccccc1O [SA, salicylamine]
median lifespan [1]: 15 days
mitochondrial oxygen consumption rate (OCR) (VC199 SIR-2.1 mutants [2]): no effect
mtDNA copy number relative to nuclear DNA (VC199 SIR-2.1 mutants [3]): no significant difference
potency and selectivity for scavenging isoketals [4]: similarly potent and as selective as PM
